Results: PMC6537702, “Design, synthesis, molecular modelling, and biological evaluation of novel substituted pyrimidine derivatives as potential anticancer agents for hepatocellular carcinoma” (Journal of Enzyme Inhibition and Medicinal Chemistry, 2019)
Converted amounts (≈) assume the structure as drawn. Read-outs that look alike come from different tables or passages of the source.

How the values were obtained:
Huh-7 cell line = assay: Resazurin cell growth inhibition assay, Huh-7; format: cell-based, human; settings: for IC50: Homo sapiens
Text: (§1) All compounds 2a-e, 3a-d, and PPAD’s 4a-t were subjected to a screening system for evaluation of their anticancer activity against cell line of human cancer, namely liver (HepG2 and Huh-7) cancer and normal fibroblast cells obtained from the German Cancer Research Center (DKFZ), following the Resazurin Cell Growth Inhibition Assay[45] in comparison to the standard treatment using DOX (see Supplementary).
(§2) Cell culture and treatment
(§3) All reagents were handled in a sterile fume hood. DMEM medium, and fetal bovine serum (FBS) were purchased from Gibco;phosphate-buffered saline pH 7.4 (PBS) and trypsin-EDTA were obtained from Sigmae Aldrich. Alamar Blue or Resazurin (Promega,Mannheim, Germany) reduction assay was used to assess the cytotoxicity of the studied samples. The growth medium (DMEMmedium with 10% FBS, 10 0 U/mL penicillin, and 10 0 mg/L streptomycin), and alamar blue were stored at 48 C, while trypsineEDTA and FBS were stored frozen at 208C and thawed before use; PBS was stored at room temperature. The Hep-G2, Huh-7 and normal fibroblast cells were obtained from the German Cancer Research Center (DKFZ).Cells were cultured in 50 cm2 culture flask s (Corning) using DMEM medium supplemented with 10% FBS, penicillin (10 0 IU/mL), and streptomycin ([…]). The culture was maintained at 37 C atmosphere of 5% CO2 and 95% relative humidity. The cells were transferred to a new fl ask every 2 days and treated with trypsineEDTA to detach them from the flask . Cells were counted under a microscope using a hemacytometer (Hausser Scientific).Cell solutions were diluted with growth medium to a concentration of 1 *10^5 cells/mL and transferred to a 96-well plate, and treated with gradient concentrations of test compounds.
(§4) Resazurin cell growth inhibition assay
(§5) Alamar Blue or Resazurin (Promega, Mannheim, Germany) reduction assay was used to assess the cytotoxicity of the studied samples. The assay tests cellular viability and mitochondrial function. Briefly y, adherent cells were grown in tissue culture flask s, and then harvested by treating the fl asks with 0.025% trypsin and0.25 mM EDTA for 5 min. Once detached, cells were washed, counted and an aliquot (5 * 103cells) was placed in each well of a96-well cell culture plate in a total volume of […]. Cells were allowed to attach overnight and then treated with samples. The final concentration of samples ranged from 0 to 10 0 mM. After 4 8 h,[…] Resazurin 0.01% w/v solution was added to each well and the plates were incubated at 37C for 1 -2 h. Fluorescence was measured on an automated 96-well Infinite M2000 ProTM plate reader (Tecan, Crailsheim, Germany) using an excit ation wave-length of 54 4 nm and an emission wavelength of 590 nm. Doxorubicin was used as positive control. Each assay was done at least three times, with two replicates each. The viability was compared based on a comparison with untreated cells. IC50(on cancer cells) were the concentration of sample required to inhibit 50% of the cell proliferation and were calculated from a calibration curve by a linear regression using Microsoft Excel

[1] = Resazurin cell growth inhibition assay, normal fibroblast cells; format: cell-based; settings: M ± SEM of three independent experiments, read-out: Cytotoxic activity IC50, Fibroblast
Text: as §1, §2, §3, §4, §5

HepG2 cell line = assay: Resazurin cell growth inhibition assay, HepG2; format: cell-based, human; settings: for IC50: Homo sapiens
Text: as §1, §2, §3, §4, §5

[2] = Huh-7, 48 h, resazurin assay, 48 h, M ± SEM of three independent experiments, read-out: Cytotoxic activity IC50, Huh-7 cell line
[3] = HepG2, 48 h, resazurin assay, 48 h, M ± SEM of three independent experiments, read-out: Cytotoxic activity IC50, HepG2 cell line
[4] = HepG2, converted from μg/mL, read-out: IC50 against HepG2 cell line, equivalent in μM
[5] = resazurin assay, 48 h, M ± SEM of three independent experiments

Structure (SMILES) | IC50 (Huh-7 cell line; [2]) [µg/mL] | IC50 at 48 h [1] [µg/mL] | IC50 (HepG2 cell line; [3]) [µg/mL] | melting point [°C] | IC50 (HepG2 cell line; [4]) [µM] | Cytotoxic activity IC50, HepG2 cell line (HepG2 cell line; [5]) [µg/mL] | IC50 (Huh-7 cell line; Huh-7, converted from μg/mL, read-out: IC50 against Huh-7 cell line, equivalent in μM) [µM] | Cytotoxic activity IC50, Huh-7 cell line (Huh-7 cell line; [5]) [µg/mL]
N#Cc1c(-c2ccccc2)nc(NN)[nH]c1=O [Compound 2a] | 21.7 ± 1.18 | 40 ± 1.24 (≈ 176 µM) | 20.8 ± 1.6 |  |  |  |  | 
N#Cc1c(-c2ccc(F)cc2)nc(NN)[nH]c1=O [Compound 2b] | 21.6 ± 2.19 | 40.6 ± 2.45 (≈ 165 µM) | 22.2 ± 2.2 |  |  |  |  | 
N#Cc1c(-c2c[nH]c3ccccc23)nc(NN)[nH]c1=O [Compound 2c] | 21.3 ± 2.37 | 40.2 ± 2.13 (≈ 151 µM) | 20.2 ± 1.88 |  |  |  |  | 
COc1cc(-c2nc(NN)[nH]c(=O)c2C#N)cc(OC)c1OC [Compound 2d] | 21.8 ± 3.18 | 40.1 ± 1.37 (≈ 126 µM) | 20.6 ± 2.14 |  |  |  |  | 
CN(C)c1ccc(-c2nc(NN)[nH]c(=O)c2C#N)cc1 [Compound 2e, 4-[4-(Dimethylamino)phenyl]-2-hydrazino-6-oxo-1,6-dihydropyrimidine-5-carbonitrile] | 21 ± 4.12 | 40.4 ± 1.89 (≈ 150 µM) | 20.1 ± 3 | 214 to 216 |  |  |  | 
O=C(/C=C/c1ccc(F)cc1)c1c2ccccc2cc2ccccc12 [Compound 3a] | 21.8 ± 1.24 | 40.6 ± 2.48 (≈ 124 µM) | 22.2 ± 2.45 |  |  |  |  | 
CN(C)c1ccc(/C=C/C(=O)c2c3ccccc3cc3ccccc23)cc1 [Compound 3b] | 21 ± 1.12 | 40.7 ± 2.34 (≈ 116 µM) | 21.4 ± 2.76 |  |  |  |  | 
COc1cc(/C=C/C(=O)c2c3ccccc3cc3ccccc23)cc(OC)c1OC [Compound 3c] | 21.5 ± 4.13 | 40.8 ± 4.51 (≈ 102 µM) | 21.5 ± 2.54 |  |  |  |  | 
O=C(/C=C/c1c[nH]c2ccccc12)c1c2ccccc2cc2ccccc12 [Compound 3d, (2E)-1–(9-anthryl)-3-(1H-indol-3-yl)prop-2-en-1-one] | 22.6 ± 3.3 | 40.8 ± 4.72 (≈ 117 µM) | 22.5 ± 2.8 | 170 to 172 |  |  |  | 
N#Cc1c(-c2ccccc2)nc(N2N=C(c3c4ccccc4cc4ccccc34)CC2c2ccc(F)cc2)[nH]c1=O (stereo not drawn) [Compound 4a, 2-[3-Anthracene-9-yl-5–(4-fluoro-phenyl)-4,5-dihydro-pyrazol-1-yl]-6-oxo-4-phenyl-1,6-dihydro-pyrimidine-5-carbonitrile] | 16.8 ± 3.45 | 32.3 ± 5.22 (≈ 60.3 µM) | 11.3 ± 2.11 | 150 to 151 |  |  |  | 
CN(C)c1ccc(C2CC(c3c4ccccc4cc4ccccc34)=NN2c2nc(-c3ccccc3)c(C#N)c(=O)[nH]2)cc1 (stereo not drawn) [Compound 4b, 2-[3-Anthracene-9-yl-5–(4-dimethylamino-phenyl)-4,5-dihydro-pyrazol-1-yl]-6-oxo-4-phenyl-1,6-dihydro-pyrimidine-5-carbonitrile] | 10.9 ± 2.14 | 33 ± 6.51 (≈ 58.9 µM) | 15.3 ± 4.21 | 120 to 122 |  |  |  | 
COc1cc(C2CC(c3c4ccccc4cc4ccccc34)=NN2c2nc(-c3ccccc3)c(C#N)c(=O)[nH]2)cc(OC)c1OC (stereo not drawn) [Compound 4c, 2-[3-Anthracene-9-yl-5–(3,4,5-trimethoxy-phenyl)-4,5-dihydro-pyrazol-1-yl]-6-oxo-4-phenyl-1,6-dihydro-pyrimidine-5-carbonitrile] | 11.3 ± 1.09 | 29.3 ± 3.51 (≈ 48.2 µM) | 15.3 ± 4.22 | 110 to 112 |  |  |  | 
N#Cc1c(-c2ccccc2)nc(N2N=C(c3c4ccccc4cc4ccccc34)CC2c2c[nH]c3ccccc23)[nH]c1=O (stereo not drawn) [Compound 4d, 2-[3-Anthracene-9-yl-5-(1H-indol-3-yl)-4,5-dihydro-pyrazol-1-yl]-6-oxo-4-phenyl-1,6-dihydro-pyrimidine-5-carbonitrile] | 8.42 ± 1.04 | 21.5 ± 4.07 (≈ 38.6 µM) | 17.2 ± 4.04 | 135 to 137 |  |  |  | 
CN(C)c1ccc(C2CC(c3c4ccccc4cc4ccccc34)=NN2c2nc(-c3ccc(F)cc3)c(C#N)c(=O)[nH]2)cc1 (stereo not drawn) [Compound 4f, 2-[3-Anthracene-9-yl-5–(4-dimethylamino-phenyl)-4,5-dihydro-pyrazol-1-yl]-4–(4-fluoro-phenyl)-6-oxo-1,6-dihydro-pyrimidine-5-carbonitrile] | 8.45 ± 0.75 | 33.1 ± 6.52 (≈ 57.3 µM) | 4.2 |  | 7.2 | 4.22 ± 0.94 |  | 
COc1cc(C2CC(c3c4ccccc4cc4ccccc34)=NN2c2nc(-c3ccc(F)cc3)c(C#N)c(=O)[nH]2)cc(OC)c1OC (stereo not drawn) [Compound 4g, 2-[3-Anthracene-9-yl-5–(3,4,5-trimethoxy-phenyl)-4,5-dihydro-pyrazol-1-yl]-4–(4-fluoro-phenyl)-6-oxo-1,6-dihydro-pyrimidine-5-carbonitrile] | 4.78 ± 0.24 | 25.3 ± 4.87 (≈ 40.5 µM) | 7.22 ± 1.85 |  |  |  | 7.6 | 
N#Cc1c(-c2ccc(F)cc2)nc(N2N=C(c3c4ccccc4cc4ccccc34)CC2c2c[nH]c3ccccc23)[nH]c1=O (stereo not drawn) [Compound 4h, 2-[3-Anthracene-9-yl-5-(1H-indol-3-yl)-4,5-dihydro-pyrazol-1-yl]-4–(4-fluoro-phenyl)-6-oxo-1,6-dihydro-pyrimidine-5-carbonitrile] | 9.77 ± 1.48 | 23.5 ± 4.21 (≈ 40.9 µM) | 7.45 ± 1.11 | 143 to 145 |  |  |  | 
CN(C)c1ccc(C2CC(c3c4ccccc4cc4ccccc34)=NN2c2nc(-c3c[nH]c4ccccc34)c(C#N)c(=O)[nH]2)cc1 (stereo not drawn) [Compound 4j, 2-[3-Anthracene-9-yl-5–(4-dimethylamino-phenyl)-4,5-dihydro-pyrazol-1-yl]-4-(1H-indol-3-yl)-6-oxo-1,6-dihydro-pyrimidine-5-carbonitrile] | 13.2 ± 3.05 | 34.1 ± 5.17 (≈ 56.9 µM) | 12.2 ± 2.53 | 240 to 242 |  |  |  | 
COc1cc(C2CC(c3c4ccccc4cc4ccccc34)=NN2c2nc(-c3c[nH]c4ccccc34)c(C#N)c(=O)[nH]2)cc(OC)c1OC (stereo not drawn) [Compound 4k, 2-[3-Anthracene-9-yl-5–(3,4,5-trimethoxy-phenyl)-4,5-dihydro-pyrazol-1-yl]-4-(1H-indol-3-yl)-6-oxo-1,6-dihydro-pyrimidine-5-carbonitrile] | 13.5 ± 2.32 | 27 ± 4.12 (≈ 41.8 µM) | 14.1 ± 3.01 | 228 to 230 |  |  |  | 
N#Cc1c(-c2c[nH]c3ccccc23)nc(N2N=C(c3c4ccccc4cc4ccccc34)CC2c2c[nH]c3ccccc23)[nH]c1=O (stereo not drawn) [Compound 4l, 2-[3-Anthracene-9-yl-5-(1H-indol-3-yl)-4,5-dihydro-pyrazol-1-yl]-4-(1H-indol-3-yl)-6-oxo–1,6-dihydro-pyrimidine-5-carbonitrile] | 12.4 ± 1.75 | 20.2 ± 3.18 (≈ 34 µM) | 14.6 ± 2.12 | 220 to 222 |  |  |  | 
COc1cc(-c2nc(N3N=C(c4c5ccccc5cc5ccccc45)CC3c3c[nH]c4ccccc34)[nH]c(=O)c2C#N)cc(OC)c1OC (stereo not drawn) [Compound 4p, 2-[3-Anthracene-9-yl-5-(1H-indol-3-yl)-4,5-dihydro-pyrazol-1-yl]-6-oxo-4–(3,4,5-trimethoxy-phenyl)-1,6-dihydro-pyrimidine-5-carbonitrile] | 8.14 ± 1.65 | 18.2 ± 4.02 (≈ 28.2 µM) | 11.2 ± 1.2 |  |  |  |  | 
COc1cccc2c1C(=O)c1c(O)c3c(c(O)c1C2=O)C[C@@](O)(C(=O)CO)C[C@@H]3O[C@H]1C[C@H](N)[C@H](O)[C@H](C)O1 [Doxorubicin, reference compound] | 5.43 | 24.1 ± 3.53 (≈ 44.4 µM) | 5.43 ± 0.24 |  | 10.1 |  |  | 6.40 ± 0.43
